Measurements published in patent publication US11571423B2, “Small molecule modulators of human sting” (Curadev Pharma Limited, priority 2017, dated 2023).

target: hSTING(R232) (Homo sapiens, UniProt Q86WV6, H232R); assay: Luciferase reporter assay in HEK293T-hSTING-Luciferase cells, R232 (wild type) human STING; assay type: cell-based; conditions: 20 hr stimulation, read-out: R232 human activity (EC50 range)
In short: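 Clonal HEK293T cells stably expressing STING from a pUNO-1 plasmid plus an ISRE/ISG54-driven secreted luciferase reporter; 5×10^5 cells stimulated with compound for 20 hr. Supernatant luciferase read by luminescence, giving fold-induction over baseline and EC50.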

Chain of hSTING(R232) (Q86WV6 whole entry H232R): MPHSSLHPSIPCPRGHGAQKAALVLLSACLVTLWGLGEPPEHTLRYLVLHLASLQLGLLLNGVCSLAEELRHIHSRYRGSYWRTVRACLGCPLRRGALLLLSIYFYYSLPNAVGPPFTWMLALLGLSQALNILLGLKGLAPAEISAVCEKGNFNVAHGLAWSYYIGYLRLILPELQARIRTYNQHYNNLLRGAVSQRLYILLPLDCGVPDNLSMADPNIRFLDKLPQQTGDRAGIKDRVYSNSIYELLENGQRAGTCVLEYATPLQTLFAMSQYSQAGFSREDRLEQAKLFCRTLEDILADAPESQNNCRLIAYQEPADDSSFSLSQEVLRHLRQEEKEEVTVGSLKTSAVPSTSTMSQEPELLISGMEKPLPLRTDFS

Compound | EC50 [nM]
CC1c2ccc(C(=O)NCc3c(F)cc(F)cc3F)cc2N(Cc2ccc(Cl)cc2F)C(=O)N1C (stereo not shown) [Example 219, 1-(4-chloro-2-fluorobenzyl)-3,4-dimethyl-2-oxo-N-(2,4,6-trifluorobenzyl)-1,2,3,4-tetrahydroquinazoline-7-carboxamide] | < 1000
C[C@H]1c2ccc(C(=O)NCc3c(F)cc(F)cc3F)cc2N(Cc2c(OP(=O)(O)O)ccc(F)c2F)C(=O)N1C [Example 99, (S)-2-((3,4-dimethyl-2-oxo-7-((2,4,6-trifluorobenzyl)carbamoyl)-3,4-dihydroquinazolin-1(2H)-yl)methyl)-3,4-difluorophenyl dihydrogen phosphate] | 1000 to 10000
CC1c2ccc(C(=O)NCc3c(F)cc(F)cc3F)cc2N(Cc2ccc(F)cc2)C(=O)N1C (stereo not shown) [Example 218, 1-(4-fluorobenzyl)-3,4-dimethyl-2-oxo-N-(2,4,6-trifluorobenzyl)-1,2,3,4-tetrahydroquinazoline-7-carboxamide] | < 1000
COc1cccc(CN2C(=O)N(C)[C@@H](C)c3ccc(C(=O)NCc4c(F)cc(F)cc4F)cc32)c1F [Example 279, (S)-1-(2-fluoro-3-methoxybenzyl)-3,4-dimethyl-2-oxo-N-(2,4,6-trifluorobenzyl)-1,2,3,4-tetrahydroquinazoline-7-carboxamide] | < 1000
CN1Cc2ccc(C(=O)NCc3c(F)cc(F)cc3F)cc2N(Cc2cnsn2)C1=O [Example 35, l-((l,2,5-thiadiazol-3-yl)methyl)-3-methyl-2-oxo-N-(2,4,6-trifluorobenzyl)-1,2,3,4-tetrahydroquinazoline-7-carboxamide] | > 10000
CN1Cc2ncc(C(=O)NCc3c(F)cc(F)cc3F)cc2N(Cc2cc(F)cc(F)c2)C1=O [Example 72, 1-(3,5-difluorobenzyl)-3-methyl-2-oxo-N-(2,4,6-trifluorobenzyl)-1,2,3,4-tetrahydropyrido[3,2-d]pyrimidine-7-carboxamide] | 1000 to 10000
CC1c2ccc(C(=O)NCc3c(F)cc(F)cc3F)cc2N(Cc2c(F)cccc2Cl)C(=O)N1C (racemic) [Example 74, 1-(2-chloro-6-fluorobenzyl)-3,4-dimethyl-2-oxo-N-(2,4,6-trifluorobenzyl)-1,2,3,4-tetrahydroquinazoline-7-carboxamide] | < 1000
Cc1cccc(CN2C(=O)N(C)Cc3ccc(C(=O)NCc4c(F)cc(F)cc4F)cc32)c1F [Example 13, 1-(2-fluoro-3-methylbenzyl)-3-methyl-2-oxo-N-(2,4,6-trifluorobenzyl)-1,2,3,4-tetrahydroquinazoline-7-carboxamide] | < 1000
CN1Cc2ccc(C(=O)NCc3c(F)cc(F)cc3F)cc2N(Cc2cn3cc(F)ccc3n2)C1=O [Example 45, 1-((6-fluoroimidazo[1,2-a]pyridin-2-yl)methyl)-3-methyl-2-oxo-N-(2,4,6-trifluorobenzyl)-l,2,3,4-tetrahydroquinazoline-7-carboxamide] | > 10000

Now from value to compound:

EC50 [nM] | Compound
> 10000 | Cn1cnc(N2Cc3ccc(C(=O)NCc4c(F)cc(F)cc4F)cc3N(Cc3c(F)cccc3Cl)C2=O)c1 [Example 34, 1-(2-chloro-6-fluorobenzyl)-3-(1-methyl-1H-imidazol-4-yl)-2-oxo-N-(2,4,6-trifluorobenzyl)-1,2,3,4-tetrahydroquinazoline-7-carboxamide]
< 1000 | CN1Cc2ccc(C(=O)NCc3c(F)cc(F)cc3F)cc2N(Cc2ccc(F)cc2F)C1=O [Example 8, 1-(2,4-difluorobenzyl)-3-methyl-2-oxo-N-(2,4,6-trifluorobenzyl)-1,2,3,4-tetrahydroquinazoline-7-carboxamide]
< 1000 | CN1Cc2ccc(C(=O)NCc3c(F)cc(F)cc3F)cc2N(Cc2ccccc2F)C1=O [Example 12, 1-(2-fluorobenzyl)-3-methyl-2-oxo-N-(2,4,6-trifluorobenzyl)-1,2,3,4-tetrahydroquinazoline-7-carboxamide]
1000 to 10000 | CN1Cc2ccc(C(=O)NCc3ccc4ccoc4c3)cc2N(Cc2c(F)cccc2Cl)C1=O [Example 52, N-(benzofuran-6-ylmethyl)-1-(2-chloro-6-fluorobenzyl)-3-methyl-2-oxo-1,2,3,4-tetrahydroquinazoline-7-carboxamide]
